In assay [1] the test system is HT29 cells. The assay can be described thus: MTT viability assay, HT29. Conditions: 72 h, mean±SD; read-out: IC50 [μM] (n = 3) HT29 MTT. The assay is classed as cell-based, human. As to the method:
(§1) In a preliminary test, the stability of all compounds dissolved in the cell medium (c = 100 μM, T = [drawing 47] ) for 72 h was validated by HPLC (see Supporting Information). Cell lines were incubated with the respective compounds in a concentration range of 1.56–100 μM for 72 h, and cell viability was measured using 3-(4,5-dimethylthiazol-2-yl)-2,5-diphenyltetrazolium bromide (MTT) and crystal violet (CV) assays. […] As MTT tests gave inconsistent results, possibly due to interference of the compound with mitochondrial respiration, for the further evaluation only the CV results are considered[97],[98].
(§2) The biological study was performed on a murine colon adenocarcinoma cell line (MC38), two human colorectal carcinoma cell lines (HCT116 and HT29), and a human fetal lung fibroblast cell line (MRC-5). All cell lines are commercially available and were obtained from the American Type Culture Collection (ATCC). The human cell lines were kept in HEPES-buffered RPMI-1640 medium supplemented with 10 [drawing 141] heat-inactivated FCS, 2 mM L-glutamine, 0.01 [drawing 142] sodium pyruvate, penicillin (100 units mL^−1), and, streptomycin ( [drawing 143] mL^-1). The MC38 cell line was maintained in DMEM medium additionally supplemented with 1 [drawing 144] non-essential amino acids. Cells were grown at [drawing 145] in a humidified atmosphere with 5 [drawing 146] [drawing 147] . Peritoneal exudate cells (PECs) were isolated from healthy C57BL/6 mice (males, n = 3, 3 months old, weight 22–25 g) by performing an ice-cold PBS peritoneal lavage. Mice were sacrificed by cervical dislocation. Cells were cultivated for 4 h when nonadherent population was removed by washing in PBS, and additionally cultivated overnight in HEPES-buffered RPMI-1640 medium supplemented with 5 [drawing 148] heat-inactivated FCS before treatment with experimental drugs. Animal handling and protocol for isolation of PECs were performed according to European Union rules, and the ARRIVE guidelines 2.0.
(§3) For the viability tests, MC38, HCT116, and HT29 cells were seeded in 96-well plates at a density of 2 [drawing 149] 103, 5 [drawing 150] 103, and 6 [drawing 151] 10^3 cells/well, respectively. To determine whether the drug affected the viability of healthy, non-malignant cells, MRC-5 and PECs were seeded in 96-well plates at a density of 8 [drawing 152] 103 and 2 [drawing 153] 10^5 cells/well, respectively. For the flow cytometric analyses, MC38 cells were seeded in 6-well plates at 5 [drawing 154] 10^4 cells/well. For morphological assessment of nuclei and the detection of autophagy, MC38 cells were seeded in 2-well chamber slides at 1.5 [drawing 155] 10^4 cells/well.
(§4) After 72 h, cell viability was determined using MTT and CV tests. First, the supernatant from the wells was discarded and the cells were incubated with an MTT solution (0.5 mg mL^−1). After half an hour, the purple formazan crystals formed were dissolved in DMSO. For CV staining of the cells, the cells were fixed with 4 [drawing 157] PFA for 10 min and then stained with a 0.02 [drawing 158] CV solution for 15 min, all at room temperature (RT). The cells were then washed with tap water, air-dried and the dye was dissolved in 33 [drawing 159] acetic acid. For both viability tests, the absorbance of the developed colors was measured using an automated microplate reader at 570 nm with a reference wavelength of 670 nm. The results were expressed as a percentage of the control values of the untreated cells, which were arbitrarily set at 100 [drawing 160] . IC50 values, defined as 50 [drawing 161] inhibitory concentration, were calculated using a four-parameter logistic function and presented as mean±SD. All biological experiments were performed in triplicates. To evaluate the nature of the detected autophagy, a combined treatment with compound 3 and the autophagy inhibitors chloroquine (Chlq) and 3-methyladenine (3-MA) was carried out. […] After 72 h, cell viability was determined by CV assay.
In general terms: Tetrazolium assays rely on reduction of a dye to a coloured formazan, in cell work by metabolically active cells.

For assay [2], the system named is peritoneal exudate cells (PECs). The assay can be described thus: Viability of peritoneal exudate cells. The assay is classed as cell-based, mice. Conditions: column head not given. As to the method:
as §2, with “Animal handling and protocol for isolation of PECs were performed according to European Union rules, and the ARRIVE guidelines 2.0.” left out
After 72 h, cell viability was determined using MTT and CV tests. […] For both viability tests, the absorbance of the developed colors was measured using an automated microplate reader at 570 nm with a reference wavelength of 670 nm. The results were expressed as a percentage of the control values of the untreated cells, which were arbitrarily set at 100 [drawing 160] . IC50 values, defined as 50 [drawing 161] inhibitory concentration, were calculated using a four-parameter logistic function and presented as mean±SD. […] To evaluate the nature of the detected autophagy, a combined treatment with compound 3 and the autophagy inhibitors chloroquine (Chlq) and 3-methyladenine (3-MA) was carried out. […] After 72 h, cell viability was determined by CV assay.

Assay [3] concerns MC38 cells. The assay can be described thus: Crystal violet (CV) viability assay, MC38. The assay is classed as cell-based, murine. The settings on record: 72 h. The protocol:
as §1, §2, §3, §4

Assay [4] has as its system MC38 cells. The assay can be described thus: PI staining of fixed cells, fluorescence microscopy. The assay is classed as cell-based, murine. The settings on record: IC50 concentration, 72 h. As to the method:
For morphological assessment of cell nuclei, MC38 cells were seeded overnight in 2-well chamber slides and then treated with the IC50 concentration of compound 3 for 72 h. At the end of the incubation period, cells were fixed with 4 [drawing 168] PFA for 15 min at RT. Staining of cells was performed with PI solution (0.1 [drawing 169] Triton X-100, 0.5 M EDTA pH 8, 50 μg mL^− 1 RNase, and 50 [drawing 170] mL^− 1 PI - final concentrations in PBS) for 1–2 min at RT. After washing in PBS, the cells were mounted in a fluorescence microscopy medium (Fluoromount- [drawing 171] , eBioscience, San Diego, CA, USA). The slides were analyzed with a ZeissAxio Observer Z1 inverted fluorescence microscope (Carl Zeiss AG, Oberkochen, Germany) at 400 [drawing 172] magnification. For the detection of autophagosomes, AO staining of cells seeded in 2-well chamber slides was applied. […] The dye was then removed, the cells were rinsed with PBS and immediately evaluated via fluorescence microscopy at 400 [drawing 175] magnification using the Leica DM4 B microscope equipped with a DFC7000 T camera (Leica Microsystems CMS GmbH, Wetzlar, Germany).

The subject of assay [5] is HT29 cells. The assay can be described thus: Crystal violet (CV) viability assay, HT29. The settings on record: 72 h, mean±SD; read-out: IC50 [μM] (n = 3) HT29 CV. The assay is classed as cell-based, human. The protocol:
as §1, §2, §3, §4

The subject of a further assay is HCT116 cells. The assay can be described thus: Crystal violet (CV) viability assay, HCT116. The assay is classed as cell-based, human. Conditions: 72 h, mean±SD; read-out: IC50 [μM] (n = 3) HCT116 CV. As to the method: as §1, §2, §3, §4

From article PMC11649784, “Re-design and evaluation of diclofenac-based carborane-substituted prodrugs and their anti-cancer potential” (Scientific Reports, 2024) come the findings set out here.

The IC50 is the concentration needed to halve the response being measured.

Take “1-[2-(7,8-dicarba-nido-undecaborate)]- [drawing 126] H-indolium-2-amine [compound 3]”: the 50% inhibitory concentration (IC50) in the assay on HT29 cells [1] stood at 17 ± 1.6 µM; in the assay on MC38 cells [3] (mean±SD, read-out: IC50 [μM] (n = 3) MC38 CV) it was 9.5 ± 0.4 µM; with HT29 cells [5], 17.6 ± 0.3 µM; in the assay with HCT116 cells, 11.5 ± 1 µM. Also, in assay [2] (presumably HCT116), the “Selectivity index (IC50 value of primary vs. cancer cells), PEC, second cancer cell line column” value was found to be 2.17. Besides, in assay [2] (presumably HT29), the “Selectivity index (IC50 value of primary vs. cancer cells), PEC, third cancer cell line column” value amounted to 1.42. The “Selectivity index (IC50 value of primary vs. cancer cells), PEC, first cancer cell line column” value in assay [2] (presumably MC38) is listed as 2.63. In addition, the “cell viability on co-treatment with 3-methyladenine (3-MA)” value in the assay with MC38 cells [3] (IC50 concentration of 3 plus 3-MA 1 mM, CV assay) is reported as “further viability decrease”. Further, in the assay with MC38 cells [3] (IC50 concentration of 3 plus Chlq 20 μM, CV assay), the “cell viability on co-treatment with chloroquine (Chlq)” value is listed as “further viability decrease”. Further, in the assay with MC38 cells [4], the “nuclear morphology (PI staining)” value was “moderate involvement of apoptotic cells”.
